Literature values, collected in patent US20090082349A1, “THIAZOLONES FOR USE AS PI3 KINASE INHIBITORS” (priority 2006, published 2009).
Like-named read-outs stand apart in the source and are kept apart here.

Experiments:
Class I PI3-kinases = conditions: each of the four Class I PI3-kinases
CK2 protein kinase = CK2 protein kinase (Homo sapiens, UniProt P68400)
Chain of CK2 protein kinase (P68400 whole entry): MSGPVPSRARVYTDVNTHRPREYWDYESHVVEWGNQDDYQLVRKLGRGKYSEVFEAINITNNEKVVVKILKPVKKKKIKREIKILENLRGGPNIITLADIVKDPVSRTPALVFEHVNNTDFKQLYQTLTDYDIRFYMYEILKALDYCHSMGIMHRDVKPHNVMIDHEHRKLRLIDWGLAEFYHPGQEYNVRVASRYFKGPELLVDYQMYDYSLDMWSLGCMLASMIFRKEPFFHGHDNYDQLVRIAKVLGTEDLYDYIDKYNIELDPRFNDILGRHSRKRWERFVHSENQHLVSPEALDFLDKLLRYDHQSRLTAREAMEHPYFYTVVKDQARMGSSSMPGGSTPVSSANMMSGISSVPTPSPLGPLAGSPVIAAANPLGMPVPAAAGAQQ

Structure (SMILES) | IC50 (Class I PI3-kinases; Fruman et al. 1998, read-out: IC50 against each of these PI3-kinases) [µM] | IC50 (CK2 protein kinase) [µM] | IC50 (Class I PI3-kinases; read-out: IC50 against each of the various Class I PI3-kinases) [µM]
O=c1cc(N2CCOCC2)oc2c(-c3ccccc3)cccc12 [LY294002] | 15 to 20 | 5 to 10 | 
COC[C@H]1OC(=O)c2coc3c2[C@@]1(C)C1=C(C3=O)[C@@H]2CCC(=O)[C@@]2(C)C[C@H]1OC(C)=O [wortmannin] |  |  | 0.001 to 0.01
